Experimental data as given in patent US11014908B2, “Chemical compounds” (Pfizer Inc., priority 2018, dated 2021).

Tests used:
Hb in human whole blood = biological target: T1, Hb in human whole blood (Homo sapiens, UniProt P68871+P69905); assay: Whole blood oxygen affinity assay (Hemox analyzer), human blood; conditions: 1 mM compound, 1 hour at 25 C, relative to DMSO
T1 construct: measured in human, dog, and mouse whole blood; from tissue; host or cells: human whole blood
From the text: Whole Blood Oxygen Affinity Assay
Oxygen affinity is a marker of the ability of Hb to bind and release oxygen in solution. It can be determined in whole blood by measuring the percentage of oxygenated and deoxygenated Hb present at a given oxygen concentration. Oxygen affinity is expressed as the p50, the partial pressure of oxygen at which 50% of the Hb in solution has oxygen bound, or the p20, the partial pressure of oxygen at which 20% of the Hb in solution has oxygen bound.
To determine the effects of compounds of the invention on oxygen affinity the p50 and p20 were measured in human, dog, and mouse whole blood using a Hemeox Analyzer (TCS Scientific). The blood was spiked with a compound of the invention to a concentration of 1 mM and incubated for 1 hour at 25 C with constant rotation. A concentration of 1 mM of compound was selected to approximate 20% hemoglobin occupancy in whole blood. Controls with the same concentration of DMSO, but no compound were incubated in the same way at the same time. Following incubation, samples were immediately assayed for oxygen affinity using the Hemox analyzer. Fifty μL of blood sample was diluted into 5 mL of hemox buffer (TCS Scientific), which had been pre-incubated to 37 C. Following dilution, samples were loaded into the analysis chamber, and fully oxygenated using compressed air. Once samples had reached an pO2 of >150 torr, the measurement was initiated by switching to N2, and the percent oxyhemoglobin as a function of partial pressure was recorded. The p20 and p50 of each sample were recorded from the instrument readout. Data are reported as the percent (%) change relative to DMSO according to the following calculations: […]

[1] = Single dose study in sickle Townes mice: exposure in whole blood; type: in vivo; conditions: male, Townes (sickle cell disease model), mouse, SCD mice, n=3
Protocol: (§1) In Vivo Studies Mouse Model
(§2) The effect of the compounds of the invention was evaluated in-male sickle Townes mice in a single dose study. Compounds of the invention were administered in amounts set out in Tables 7, 8 and 9 that follow by oral gavage. Control mice received vehicle. Blood (50 μL) was drawn at 0.5 h, 1 h, 4 h, 7 h, 10 h, and 24 h. To measure exposure in whole blood, 20 μL sample was used. Blood drawn at 0.5 h was also evaluated for cell sickling.

[2] = test system: Red Blood Cells (RBCs) from treated animals; assay: Single dose study in sickle Townes mice: RBC sickling under hypoxia; type: in vivo, mouse; conditions: 0.5 h, SCD mice, n=3
Protocol: as §1, §2
Red Blood Cells (RBCs) from treated animals were diluted to ˜10^7 cells/mL with 300 μL Hemeox solution in a 24-well plate and incubated in a hypoxia chamber, 5% CO2 and 3% O2 for 4 h. Cells were then fixed at room temperature for 30 minutes in sickling fixative solution and stained with TER119 alexa 488 conjugated antibody (BioLegend) for 30 minutes at room temperature, washed and plated at 50,000 cells/well with 200 μL of hemox buffer (TCS Scientific). Data were visualized using Graph Pad Prism (Version 5). Results are expressed as mean±standard error of the mean (SEM). Statistical analysis was made using a non-parametric one-way analysis of variance (ANOVA) followed by a Dunnett's multiple comparison. Significance was accepted when p<0.01.

Townes SCD mice = assay: Chronic dosing study (BID, 15 days) in Townes SCD mice; type: in vivo, mouse; conditions: 200 mg/kg BID for 15 days, Townes SCD mice, vs vehicle; for sVCAM1, Change (decrease): ELISA
Protocol: Following 15 days of dosing, blood samples were collected from all animals to run in the Hemeox analyzer to generate oxygen affinity curves, complete blood analysis was performed using Idexx hematology Analyzer, and cell sickling assessed as described before. Soluble Vascular Adhesion Molecule 1 levels (sVCAM1) were assessed by Enzyme linked immunosorbent assay (ELISA) from R&D systems. Results are presented below in Tables 7, 8 and 9.

[3] = single dose 30 mg/kg oral gavage
[4] = single dose 100 mg/kg oral gavage
[5] = single dose 300 mg/kg oral gavage
[6] = single dose 900 mg/kg oral gavage
[7] = single dose 10 mg/kg oral gavage
[8] = single dose 40 mg/kg oral gavage
[9] = single dose 220 mg/kg oral gavage
[10] = single dose 490 mg/kg oral gavage

T1 sequence (P69905 2-142 limits assumed): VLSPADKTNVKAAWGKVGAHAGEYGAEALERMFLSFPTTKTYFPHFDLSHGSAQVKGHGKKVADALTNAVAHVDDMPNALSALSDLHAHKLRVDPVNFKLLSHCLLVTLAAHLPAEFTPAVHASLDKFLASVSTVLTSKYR
T1 sequence (P68871 2-147 limits assumed): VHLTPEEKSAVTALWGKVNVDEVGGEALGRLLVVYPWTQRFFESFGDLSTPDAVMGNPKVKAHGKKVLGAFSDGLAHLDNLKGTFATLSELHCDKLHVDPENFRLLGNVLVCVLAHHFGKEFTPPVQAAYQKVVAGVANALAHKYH

| SMILES | Reduction in p20 (%) Human (Hb in human whole blood) [%] | Reduction in p50 (%) Human (Hb in human whole blood) [%] | sVCAM1, Change (decrease) (Townes SCD mice) [% decrease] | Hb, Change (increase) (Townes SCD mice) [% increase] | Hematocrit, Change (increase) (Townes SCD mice) [% increase] | RBC sickling, Change (decrease) (Townes SCD mice) [% decrease] | RBCs, Change (increase) (Townes SCD mice) [% increase] | Reticulocytes, Change (decrease) (Townes SCD mice) [% decrease] | p20, Change (decrease) (Townes SCD mice) [% decrease] | p50, Change (decrease) (Townes SCD mice) [% decrease] | further results |
| --- | --- | --- | --- | --- | --- | --- | --- | --- | --- | --- | --- |
| C[C@H](Oc1cc2cc(F)cc(F)c2nc1N)c1cc(C(=O)O)ccc1-n1cccn1 [Example 21, 3-{(1S)-1-[(2-amino-6,8-difluoroquinolin-3-yl)oxy]ethyl}-4-(1H-pyrazol-1-yl)benzoic Acid] | 25 ± 9 | 14 ± 10 | 6.57 ± 3.75 | 43.7 ± 9.83 | 29.1 ± 11.2 | 30.8 ± 14.5 | 44.6 ± 9.04 | 32.7 ± 9.37 | 76.1 ± 13.9 | 26.2 ± 9.7 | concentration at 0.5 h [1, 3]: 14.7 µM; concentration at 0.5 h [1, 4]: 303 µM; concentration at 0.5 h [1, 5]: 1140 µM; concentration at 0.5 h [1, 6]: 1500 µM; % Change in RBC Sickling [2, 3]: 2.03%; % Change in RBC Sickling [2, 4]: −0.02%; % Change in RBC Sickling [2, 5]: 24.6%; % Change in RBC Sickling [2, 6]: 29.0% |
| C[C@H](Oc1cc2cc(F)ccc2nc1N)c1nc(O)ccc1-n1cccn1 [Example 58, 6-{(1S)-1-[(2-amino-6-fluoroquinolin-3-yl)oxy]ethyl}-5-(1H-pyrazol-1-yl)pyridin-2-ol] | 24 ± 19 | 12 ± 9 | 9.98 ± 7.1 | 42.4 ± 4.2 | 30.9 ± 0.7 | 37.8 ± 9.0 | 39.2 ± 9.3 | 54.7 ± 2.4 | 84.4 ± 2.6 | 53.7 ± 21.2 | concentration at 0.5 h [1, 7]: 35.8 µM; concentration at 0.5 h [1, 8]: 285 µM; concentration at 0.5 h [1, 9]: 1450 µM; concentration at 0.5 h [1, 10]: 2870 µM; % Change in RBC Sickling [2, 7]: −6.2%; % Change in RBC Sickling [2, 8]: 4.6%; % Change in RBC Sickling [2, 9]: 50.8%; % Change in RBC Sickling [2, 10]: 48.3% |
